Key:
[1] = test system: biotinylated sheep anti-cortisol gamma globulin (anti-cortisol antibody); assay: VITROS ECi chemiluminescence competitive immunoassay, cross-reactivity (50% displacement of HRP-labeled conjugate); assay type: binding; conditions: cortisol conc. displacing 50% / cross-reactant conc. displacing 50% x 100; for Percent Cross-Reactivity, HRP-RC Invention Label: HRP labeled reduced cortisol-3-CMO-BSA (HRP-RC) as label; for Percent Cross-Reactivity, HRP-NRC Comparative Label: comparative HRP labeled nonreduced cortisol conjugate (HRP-NRC) as label
Method: Evaluation of the HRP labeled reduced cortisol-3-CMO-BSA (hereinafter referred to as HRP-RC conjugate) was evaluated using an Ortho-Clinical Diagnostic VITROS ECi chemiluminesence-based assay methodology.
100 ng/mL reduced cortisol-3-CMO-BSA-HRP (or 20 ng/mL of a comparative HRP-cortisol conjugate label, which is not a conjugate label of the present invention, but which was carried through the same procedures as the label of the invention except for the reduction step)
1.5 μg/mL biotinylated sheep anti-cortisol gamma globulin
An aliquot (75 μL) of anti-cortisol biotinylated sheep antibody, 30 μL of sample, serum comprising cortisol or a steroid structurally similar to cortisol (below), and 75 μL of HRP-RC conjugate were added to an VITROS ECi sample container to which strepavidin had been prebound. The solution was incubated at 37° C. for 30 minutes, then washed using the above-indicated wash reagent.
A 200 μL aliquot of the above-indicated signal reagent solution (100 μL of part A and 100 μL of part B combined just prior to use) was then added to the sample container. The solution was incubated for 5 minutes at 37° C., and the chemiluminesence intensity was then determined.
The above method was used to determine the concentration of potential cross reactant (steroid that is structurally similar to cortisol: 11-deoxycortisol, prednisolone, corticosterone and cortisone) that displaced fifty percent of a fixed amount of a comparative HRP labeled cortisol conjugate (nonreduced cortisol, HRP-NRC) or HRP-RC conjugate bound to a fixed amount of anti-cortisol antibody.
Varied levels of the potential cross reactant were added to sample containers containing either the comparative labeled cortisol conjugate (nonreduced cortisol, HRP-NRC) or HRP-RC conjugate of the instant invention, as described above.
The concentration of cross reactant resulting in a light signal measurement corresponding to 50% of the maximum attainable (all conjugate displaced) was determined and used to calculate the percent cross reactivity as described below and whose results are listed in Table 1.
Percent cross-reactivity is defined as The concentration of cortisol that displaced 50% of the HRP-NRC comparative conjugate (or the HRP-RC conjugate) divided by the concentration of cross-reactant that displaced 50% of the HRP-NRC comparative conjugate (or the HRP-RC conjugate) multiplied by 100 as determined per the assay method described hereinabove.

anti-cortisol antibody = conditions: prior art commercial cortisol assays; cited from earlier work

| Percent Cross-Reactivity, HRP-RC Invention Label [1] [%] | Percent Cross-Reactivity, HRP-NRC Comparative Label [1] [%] | Structure (SMILES) | cross-reactivity in commercial cortisol assays (anti-cortisol antibody) |
| --- | --- | --- | --- |
| 100 | 100 | C[C@]12CCC(=O)C=C1CC[C@@H]1[C@@H]2[C@@H](O)C[C@@]2(C)[C@H]1CC[C@]2(O)C(=O)CO [cortisol] | – |
| 24.6 | 34.8 | C[C@]12C=CC(=O)C=C1CC[C@@H]1[C@@H]2[C@@H](O)C[C@@]2(C)[C@H]1CC[C@]2(O)C(=O)CO [prednisolone] | – |
| 2.2 | 28.4 | C[C@]12CCC(=O)C=C1CC[C@@H]1[C@@H]2CC[C@@]2(C)[C@H]1CC[C@]2(O)C(=O)CO [11-deoxycortisol] | greater than 10% |
| 3.3 | 4.4 | C[C@]12C[C@H](O)[C@H]3[C@@H](CCC4=CC(=O)CC[C@@]43C)[C@@H]1CC[C@@H]2C(=O)CO [corticosterone] | – |
| 1.8 | 5.5 | C[C@]12CCC(=O)C=C1CC[C@@H]1[C@@H]2C(=O)C[C@@]2(C)[C@H]1CC[C@]2(O)C(=O)CO [cortisone] | – |
